# Test results taken from patent publication US20030083385A1, “Use of benzenesulfonyl (thioureas or ure as) for treating of septic shock or gene ralized inflammatory syndrome” (priority 2001, published 2003).
# Counter-ions that a name gives are not always drawn.
# Experiments:
# [1] = tested on: anesthetized pigs infused continuously with lipopolysaccharide (LPS); experiment: Endotoxin (LPS) model in anesthetized pigs, continuous LPS infusion; format: in vivo, pig
# Text: (§1) The suitability of a compound of formula I for treating pathological changes in blood pressure associated with septic shock or occurring in the generalized inflammatory syndrome (SIRS) state can be established, for example, in the pharmacological model in the pig that is described further below (endotoxin model, synonym: LPS model (LPS=lipopolysaccharide)). The effect can also be examined, for example, in rats, mice, cats, guinea pigs, rabbits, dogs or monkeys.
# Anesthetized pigs were infused continuously with lipopolysaccharide (LPS) (0.15 μg/kg/h; n=7). This led to a decrease in the peripheral resistance. After 3.9 hours, 1-(5-(2-(5-chloro-2-methoxybenzamido)ethyl)-2-(2-methoxyethoxy)phenyl-sulfonyl)-3-methylthiourea sodium salt was administered at a dose of 5-10 mg/kg (intravenously; aqueous solution). […] The peripheral resistance, which under the effect of the endotoxin had fallen to 60.8±4.1% of the starting value that had been present prior to administering the endotoxin, rose to 80.8±5.1% of the starting value that had been present prior to administering the endotoxin (p<0.0001).
# [2] = tested on: anesthetized pigs given lipopolysaccharide (LPS) as a bolus; experiment: Endotoxin (LPS) model in anesthetized pigs, LPS bolus; format: in vivo, pig; settings: LPS 1 μg/kg bolus, n=5, LPS raised pressure from 30.6±0.7 to 67.2±6.0 mm Hg, compound 5 mg/kg intravenously, p<0.01
# Text: as §1
# In another experimental approach performed on anesthetized pigs, 1 μg/kg of LPS was administered as a bolus (n=5). This led, within 15-20 min, to a dangerous increase in the systolic pulmonary arterial pressure from 30.6±0.7 mm Hg to 67.2±6.0 mm Hg.
smiles,measurement,setting,value
CNC(=S)NS(=O)(=O)c1cc(CCNC(=O)c2cc(Cl)ccc2OC)ccc1OCCOC [1-(5-(2-(5-chloro-2-methoxybenzamido)ethyl)-2-(2-methoxyethoxy)phenyl-sulfonyl)-3-methylthiourea sodium salt],rise of peripheral mean arterial blood pressure,"[1]; LPS 0.15 μg/kg/h continuous infusion, n=7, compound 5-10 mg/kg intravenously (aqueous solution) after 3.9 hours, p<0.001",19.6±3.2 mm Hg
same,peripheral resistance after administration,"[1]; LPS 0.15 μg/kg/h continuous infusion, n=7, compound 5-10 mg/kg intravenously after 3.9 hours, had fallen to 60.8±4.1% under endotoxin, p<0.0001",80.8±5.1 % of the starting value
same,effect when administered as an infusion,"[1]; LPS model, infusion, total dose 5-10 mg/kg, seen already after a dose of 1-2.5 mg/kg had been infused",marked improvement
same,systolic pulmonary arterial pressure after administration,[2],46.6±4.0 mm Hg
